From US11612601B1, “Targeting epidermal growth factor to treat vascular calcification” (THE FLORIDA INTERNATIONAL UNIVERSITY BOARD OF TRUSTEES, priority 2022, dated 2023)

Experiments:
[1] = system: Primary human coronary artery vascular smooth muscle cells; assay: VSMC extracellular matrix collagen (Sircol soluble collagen assay); assay type: cell-based; details: VSMCs, OS media, 2.5 μM, 28 days; p=0.10
Method: After 28 days of treatment, soluble collagen was extracted from the cultures using acetic acid (0.5 M) through overnight incubation at 4° C. A colorimetric assay, Sircol soluble collagen assay (Biocolor, S1000), measured the total soluble extracellular matrix (ECM) collagen in each group. Samples were prepared and assessed according to the manufacturer's protocol. Results were then normalized to the total protein measured using BCA assay.

[2] = system: Primary human coronary artery vascular smooth muscle cells; assay: In vitro calcification of VSMCs, Alizarin Red S staining; assay type: cell-based; details: OS media, 2.5 μM, 28 days
Method: Primary human coronary artery vascular smooth muscle cells, (VSMCs, ATCC, PCS-100-021) were cultured using vascular smooth muscle cell media and growth kit (ATCC, PCS-100-042). VSMCs (passage 4-6) were harvested using 0.05% trypsin-EDTA solution (Caisson Labs, TRL04) and seeded with a density of 26,320 cells.cm^−2 and incubated for 72 hours at 37° C., 5% CO2 with controlled humidity prior to treatment. VSMCs were treated with either control media, consisting of DMEM (HyClone, SH30022.01), 10% v/v bovine calf serum (iron-supplemented, R&D Systems, S11950), and 1% v/v penicillin-streptomycin (Gibco, 15070-063), or with an osteogenic media (OS) optimized to induce calcification. OS media were supplemented with 10 mM β-glycerophosphate (Sigma, 13408-09-8), 0.1 mM L-ascorbic acid (Sigma, 113170-55-1), and 10 nM dexamethasone (Sigma, 50-02-2).
To assess the role of EGFR inhibition, tyrphostin AG1478 (Millipore Sigma, T4182) was dissolved in vehicle (DMSO:Methanol, 1:1) and added to OS media to a final concentration of 2.5 μM. An equal volume of vehicle was added to the control and OS groups. […]
To quantify the in vitro calcification, ARS stain was extracted using acetic acid (1.67 M, Fisher Chemical, A38S) on a shaker. […] Sample absorbance of 405 nm was measured using a multi-mode reader (BioTek, Synergy HTX).

`COc1cc2ncnc(Nc3cccc(Cl)c3)c2cc1OC` [AG1478, tyrphostin AG1478] was tested, and the ECM collagen accumulation [1] was “did not affect” and the “in vitro calcification of VSMCs (ARS staining)” value [2] was “abrogated”.
